Key:
bladder cancer cells = assay: BrdU incorporation assay in cultured cells; assay type: cell-based; conditions: IC50 concentration, 24 hours; control 11.2%±0.84
Description: To determine the proliferation rate of cells in response to APE1/Ref-1 redox inhibitors, cells were grown in the culture conditions described above and treated with inhibitors as described above, in chamber slides. After 24 hours in culture with inhibitors or vehicle, all cells were treated with 3.1 μg/ml BrdU (in sterile PBS; 0.1%) for one hour. Cells were fixed and permeablized with 4% paraformaldehyde and stained for BrdU incorporation with the antibody and methodology described in the Roche BrdU labeling Kit, (Risch-Rotkreuz, Switzerland), using secondary antibodies. Positive cells were captured on a Leica 6000 fluorescent microscope and were quantified relative to Hoechst positive nuclei (total live cells).
To further characterize this effect, it was analyzed whether this reduced cell number was due to decreases in proliferation, increases in apoptosis, or both.

NFκB = assay: NFκB-driven luciferase reporter; assay type: cell-based, human; conditions: T24 and UC3 cells induced with TNFa, IC50 concentration, 24 h
Description: (§1) FIGS. 36A-36H. […] In cytokine-induced T24 and UC3 cells NFκB-driven luciferase (FIG. 36A), STAT3-driven luciferase (FIG. 36B), and AP-1-driven luciferase (FIG. 36C) were quantified and normalized via Renilla following treatment with the corresponding cell growth-inhibitory IC50 concentrations. T24 cells were treated with APX2009 (8.5 μM) and APX2014 (6.5 μM), and UC3 cells were treated with APX2009 (6.1 μM) and APX2014 (4.6 μM) for 24 h. (*-p<0.05 APX treated vs vehicle, n=4). […] In the panels of FIGS. 36F & 36G, co-expression of survivin and APE1/Ref-1 was analyzed in superficial (FIG. 36F) and invasive human bladder tumors (FIG. 36G) in patients, and found nearly universal overlap of positivity in both in human samples. This was also true in cisplatin-refractory patients from the tissue microarray specimens (FIG. 36H).
The transcriptional activity of NFκB, STAT3, and AP-1 is under redox control by APE1/Ref-1. Therefore, NFκB, STAT3, or AP-1 transcriptional activity was quantified following treatment with APE1/Ref-1 redox inhibitors (FIGS. 36A-36C).

survivin and Cyclin D1 = assay: Western blot of survival and proliferation proteins in cells; assay type: cell-based, human; conditions: immunoblot
Description: as §1
Whole cell extracts were prepared using RIPA (radioimmunoprecipitation) buffer containing protein inhibitors (1:100 PMSF, 1:100 orthovanadate and 1:100 protease inhibitor). Total protein concentration was determined via Lowry or BCA assay. 10-50 μg/well of each lysate was separated by SDS-PAGE using a 12% SDS-polyacrylamide gel. Blots were blocked with 5% nonfat dry milk in 1×TBS for 1 h and incubated overnight with primary antibodies to either APE1/Ref-1 (1:1000 dilution, Novus, NB-100-116), survivin (1:1000, Cell Signaling), Cyclin D1 (1:500, Abcam), PARP-1 (1:1000, Cell Signaling) or GAPDH (1:5000, Cell Signaling). After blots were washed three-six times with TBS-Tween, blots were incubated with HRP-conjugated secondary mouse antibodies (1:5000, Pierce). After washing three-six times with TBS-Tween, blots were visualized by enhanced chemiluminescence (West Pico/West Femto, Pierce).
For further confirmation of a decrease in NFκB and STAT3 transcriptional activity, levels of survivin and Cyclin D1 were examined Both survivin and Cyclin D1 are known to be downstream targets of NFκB and STAT3. […] However, unlike APE1/Ref-1, survivin expression was primarily nuclear in both urothelial confined and invasive lesions.

[1] = tested on: T24 human bladder cancer cells; assay: T24 subcutaneous flank xenograft; assay type: in vivo, athymic nude mice; conditions: for tumor weight at sacrifice: ip every 12 hours, vehicle 1.0±0.2 g; for tumor growth compared to vehicle control / reduction in survivin expression in harvested tumors: ip twice daily
Description: […] T24 human bladder cancer cells were grown in conditions described above and harvested with 0.05% Trypsin, centrifuged, and resuspended in a 50:50 solution of Matrigel: RPMI medium. For each subcutaneous tumor, a 100 μl volume of this suspension was implanted in the hind flank of […]. […] BrdU was injected into the animals 2 hours prior to sacrifice and tumor tissues were harvested and split into either snap frozen tissues for protein harvest and molecular analysis or fixed in formalin and processed for histological analysis, and then analyzed for survivin, Cyclin D1 levels (immunofluorescence and immunoblotting) for target protein assessment and BrdU incorporation (immunofluorescence).
Prior to sacrifice, mice were injected with BrdU and BrdU incorporation was visualized and quantitated via red fluorescence.

multiple myeloma cells = assay: MTS assay of multiple myeloma cells, combinations (CalcuSyn); assay type: cell-based
Description: APX3330 in combination with chemotherapeutic Melphalan. […] Synergistic plots made using CalcuSyn software. APX3330 was either given alone or in combination with melphalan. As an indicator of DNA double stranded breaks (DSBs), the phosphorylation of histone H2AX at Ser^139 was measured with a phosphorylation-specific H2AX antibody from Upstate Cell Signaling Solutions (Waltham, Md.). Cells were treated with melphalan alone or melphalan plus APX3330. After drug treatment, exponentially growing cells were harvested, washed in cold PBS, and lysed in about 100 μL RIPA assay buffer as described above. Protein was quantified and electrophoresed in SDS gel-loading buffer on a 12% SDS-polyacrylamide gel. Mouse monoclonal anti-phosphohistone H2AX (about 1:1000) or anti-actin antibody (about 1:1000; as a loading control, LabVision Corp., NeoMarkers, Fremont, Calif.) was used to probe for protein levels as described previously. Bands were detected using a chemiluminescence kit from Roche Applied Biosciences (Indianapolis, Ind.). The bands were visualized using Bio-Rad Chemidoc XRS (Hercules, Calif.) and quantitated using Chemidoc software, Quantity One 4.6.1. […]
APX3330 in combination with Methoxyamine-multiple myeloma cells. […] Data was calculated using the CalcuSyn software which is based on the Chou-Talalay algorithm (Chou-Talalay; Advances in Enzyme Regulation 22, 27-55). […]

[2] = tested on: rat dorsal root ganglion cells; assay: MTS cell viability assay of dorsal root ganglion cells; assay type: cell-based
Description: APX3330 in combination with chemotherapeutic Cisplatin. […] There was no effect of APX3330 (RN3-3) on the post-mitotic DRG cells, indicative of a non-toxic effect of APX3330 (RN3-3) on non-dividing cells.
DRG cell cultures and treatments were performed similar to previously published procedures using just APX3330 alone (DNA Repair Volume 4, Issue 3, 2 Mar. 2005, pp […]).

[3] = APX3330 50 mg/kg, APX2009 25 mg/kg
[4] = APX3330 50 mg/kg, APX2009 25 mg/kg, immunoblot

| Compound | BrdU-positive cells (bladder cancer cells) | reduction of NFκB-driven luciferase activity (NFκB) | expression of c-Myc, Bcl-2, Bcl-XL (survivin and Cyclin D1) | expression of survivin and Cyclin D1 (survivin and Cyclin D1) | decrease in BrdU+ cells in tumors ([1]; APX2009 25 mg/kg ip twice daily) | tumor weight at sacrifice [1, 3] | tumor growth compared to vehicle control [1, 3] | reduction in survivin expression in harvested tumors [1, 4] | ratio of cleaved caspase 3 to total caspase 3 in harvested tumors [1, 4] | killing of multiple myeloma cells in combination with melphalan (multiple myeloma cells; combination with melphalan, 72 hours) | killing of multiple myeloma cells in combination with methoxyamine (multiple myeloma cells; combination with methoxyamine) | survival of dorsal root ganglion cells ([2]; as high as about 120 μM, up to about 72 hours) | protection against cisplatin neurotoxicity ([2]; with cisplatin) |
| --- | --- | --- | --- | --- | --- | --- | --- | --- | --- | --- | --- | --- | --- |
| CCC/C(=C\C1=C(OC)C(=O)c2ccccc2C1=O)C(=O)N(CC)CC [APX2009, [(2E)-2-[(3-methoxy-1,4-dioxo-1,4-dihydronaphthalen-2-yl)methylidene]-N,N-diethylpentanamide]] | 6.9%±0.58 | 2 fold | No change in expression | significantly down-regulated | 60% | 0.37 ± 0.14 g | significantly reduced tumor growth | 64% | increase in the ratio of cleaved caspase 3 | – | – | – | – |
| CCCCCCCCC/C(=C\C1=C(C)C(=O)C(OC)=C(OC)C1=O)C(=O)O [APX3330] | 7.8%±0.64 | – | – | – | – | 0.43 ± 0.10 g | significantly reduced tumor growth | 42% | – | synergistically enhance the killing of multiple myeloma cells | enhanced killing of multiple myeloma cells | did not impair the survival | provided protection against the neuro-toxic effects of the chemotherapeutic cisplatin |

Reference: patent publication US11331294B2, “Benzoquinone derivative E3330 in combination with chemotherapeutic agents for the treatment of bladder cancer” (Indiana University Research and Technology Corporation, priority 2007, dated 2022)
